In patent US10975056B2 (GlaxoSmithKline Intellectual Property Development Limited, priority 2016, dated 2021):
Like-named read-outs stand apart in the source and are kept apart here.

Columns and labels:
DNMT1 = DNMT1 (Homo sapiens, UniProt P26358); assay: DNMT1 biochemical activity, breaklight assay and/or SPA assay
[1] = system: erythroid progenitor cells (EPCs); assay: Fetal hemoglobin (HbF) ELISA in day 7 erythroid progenitor cells; format: cell-based, human; details: Homo sapiens, Erythroid progenitor cell, HbF ELISA, day 7 EPCs, 5 days; read-out: EPC ELISA (pEC50 category) (converted);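 also: for fetal hemoglobin induction normalized to vehicle-treated cells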
How it was run: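 Day 7 EPCs from human bone marrow CD34+ cells were plated at 1,000 cells/well in media with 3 U/mL rhEPO. They were exposed to a 22-point dilution ([…]) for 5 days at 37 °C. Lysate HbF was measured by sandwich ELISA (OD450) and normalized to DMSO control wells.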

[2] = binned activity in either the breaklight or the SPA assay
[3] = binned activity in either the breaklight or the SPA assay, read-out: DNMT1 BioChemical (pIC50 category) (converted)

Chain of DNMT1 (P26358 whole entry, looked up): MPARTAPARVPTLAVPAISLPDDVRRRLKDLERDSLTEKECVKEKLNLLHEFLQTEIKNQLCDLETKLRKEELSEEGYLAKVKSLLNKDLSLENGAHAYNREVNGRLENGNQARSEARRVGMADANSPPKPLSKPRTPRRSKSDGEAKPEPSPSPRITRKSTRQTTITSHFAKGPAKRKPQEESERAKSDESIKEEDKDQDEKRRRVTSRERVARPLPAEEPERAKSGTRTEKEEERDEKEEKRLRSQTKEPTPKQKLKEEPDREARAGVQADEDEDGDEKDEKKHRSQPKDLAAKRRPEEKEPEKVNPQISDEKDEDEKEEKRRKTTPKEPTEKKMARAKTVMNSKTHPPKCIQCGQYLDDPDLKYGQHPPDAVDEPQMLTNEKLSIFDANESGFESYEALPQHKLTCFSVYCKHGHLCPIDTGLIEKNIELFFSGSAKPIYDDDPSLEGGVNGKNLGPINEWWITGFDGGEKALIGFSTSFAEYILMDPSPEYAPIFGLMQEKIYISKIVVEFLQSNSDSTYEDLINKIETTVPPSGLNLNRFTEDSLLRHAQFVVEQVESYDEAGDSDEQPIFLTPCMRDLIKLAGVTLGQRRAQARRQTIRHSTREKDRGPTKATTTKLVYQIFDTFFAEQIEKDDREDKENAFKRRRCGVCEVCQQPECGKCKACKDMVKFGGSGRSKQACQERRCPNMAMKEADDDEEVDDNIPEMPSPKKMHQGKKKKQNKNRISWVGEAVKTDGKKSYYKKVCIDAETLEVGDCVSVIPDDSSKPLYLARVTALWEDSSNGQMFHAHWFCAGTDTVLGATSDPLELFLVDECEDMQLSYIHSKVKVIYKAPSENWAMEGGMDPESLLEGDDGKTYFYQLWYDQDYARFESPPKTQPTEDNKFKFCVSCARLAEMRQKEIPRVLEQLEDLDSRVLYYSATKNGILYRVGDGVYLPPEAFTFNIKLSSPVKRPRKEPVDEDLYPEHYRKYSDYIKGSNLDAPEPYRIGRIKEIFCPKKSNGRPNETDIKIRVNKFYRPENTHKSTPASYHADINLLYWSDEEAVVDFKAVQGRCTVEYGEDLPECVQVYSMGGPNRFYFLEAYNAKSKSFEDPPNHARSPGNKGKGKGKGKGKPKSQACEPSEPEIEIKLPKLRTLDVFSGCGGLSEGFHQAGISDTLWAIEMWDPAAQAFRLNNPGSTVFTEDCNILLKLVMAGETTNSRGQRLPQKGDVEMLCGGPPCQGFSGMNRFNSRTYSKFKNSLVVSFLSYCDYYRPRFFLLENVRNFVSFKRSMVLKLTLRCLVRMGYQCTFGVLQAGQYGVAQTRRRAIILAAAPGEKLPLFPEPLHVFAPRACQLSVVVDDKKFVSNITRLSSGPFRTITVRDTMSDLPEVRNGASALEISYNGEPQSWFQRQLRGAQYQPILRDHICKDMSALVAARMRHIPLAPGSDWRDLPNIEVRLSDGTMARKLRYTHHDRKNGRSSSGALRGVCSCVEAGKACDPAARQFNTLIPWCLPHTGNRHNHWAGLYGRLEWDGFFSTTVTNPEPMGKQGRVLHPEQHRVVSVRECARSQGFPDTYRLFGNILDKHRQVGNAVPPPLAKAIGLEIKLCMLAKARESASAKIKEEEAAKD

Row | DNMT1 BioChemical (pIC50 category) (DNMT1; [2]) | EC50 [1] | IC50 (DNMT1; [3]) | average pIC50 against DNMT1 (DNMT1; breaklight assay and/or SPA assay, repeated experimental runs) | IC50 (DNMT1; breaklight assay and/or SPA assay, repeated experimental runs, read-out: average pIC50 against DNMT1 (converted)) | Compound
1 | D (Category D: ≥6.5) | < 316 nM |  |  |  | CCc1c(C#N)c(SCc2ccc(N(C)S(C)(=O)=O)cc2)nc(N2CCOC(CN3CCCC3)C2)c1C#N (stereo not shown) [Example 574, N-(4-(((3,5-dicyano-4-ethyl-6-(2-(pyrrolidin-1-ylmethyl)morpholino)pyridin-2-yl)thio)methyl)phenyl)-N-methylmethanesulfonamide]
2 | D (Category D: ≥6.5) | < 316 nM |  |  |  | CCc1c(C#N)c(SC(C(N)=O)c2ccccc2)nc(N2CCO[C@@H](CNC(=O)C(C)(C)N)C2)c1C#N (stereo partly drawn) [Example 575, 2-amino-N-(((2S)-4-(6-((2-amino-2-oxo-1-phenylethyl)thio)-3,5-dicyano-4-ethylpyridin-2-yl)morpholin-2-yl)methyl)-2-methylpropanamide]
3 |  | < 316 nM | < 316 nM |  |  | CCc1c(C#N)c(SC(C(N)=O)c2ccccc2)nc(N2CCC[C@@H](CN)C2)c1C#N (stereo partly drawn) [Example 576, 2-((6-((S)-3-(aminomethyl)piperidin-1-yl)-3,5-dicyano-4-ethylpyridin-2-yl)thio)-2-phenylacetamide]
4 | D (Category D: ≥6.5) | < 316 nM |  |  |  | CCc1c(C#N)c(SCc2ccc(N(C)S(C)(=O)=O)cc2)nc(N(C)CCN2CCCCC2)c1C#N [Example 577, N-(4-(((3,5-dicyano-4-ethyl-6-(methyl(2-(piperidin-1-yl)ethyl)amino)pyridin-2-yl)thio)methyl)phenyl)-N-methylmethanesulfonamide]
5 | D (Category D: ≥6.5) | < 316 nM |  |  |  | CCc1c(C#N)c(SC(C(N)=O)c2ccccc2)nc(N2CCO[C@H](CN(CC)CC)C2)c1C#N (stereo partly drawn) [Example 578, 2-((3,5-dicyano-6-((R)-2-((diethylamino)methyl)morpholino)-4-ethylpyridin-2-yl)thio)-2-phenylacetamide]
6 | D (Category D: ≥6.5) | < 316 nM |  |  |  | CCc1c(C#N)c(SCc2ccc(N(C)S(C)(=O)=O)cc2)nc(N(C)CCN(CC)CC)c1C#N [Example 579, N-(4-(((3,5-dicyano-6-((2-(diethylamino)ethyl)(methyl)amino)-4-ethylpyridin-2-yl)thio)methyl)phenyl)-N-methylmethanesulfonamide]
7 | D (Category D: ≥6.5) | < 316 nM |  |  |  | CCc1c(C#N)c(SCc2ccc(N(C)S(C)(=O)=O)cc2)nc(N2CCOC(CN(CC)CC)C2)c1C#N (stereo not shown) [Example 580, N-(4-(((3,5-dicyano-6-(2-((diethylamino)methyl)morpholino)-4-ethylpyridin-2-yl)thio)methyl)phenyl)-N-methylmethanesulfonamide]
8 | D (Category D: ≥6.5) | < 316 nM |  |  |  | CCc1c(C#N)c(SC(C(N)=O)c2ccccc2)nc(N2CCO[C@H](CNC(=O)C(C)(C)N)C2)c1C#N (stereo partly drawn) [Example 581, 2-amino-N-(((2R)-4-(6-((2-amino-2-oxo-1-phenylethyl)thio)-3,5-dicyano-4-ethylpyridin-2-yl)morpholin-2-yl)methyl)-2-methylpropanamide]
9 | D (Category D: ≥6.5) | < 316 nM |  |  |  | CCc1c(C#N)c(SCc2ccc(N(C)S(C)(=O)=O)cc2)nc(N2CCC(N3CCCC3)CC2)c1C#N [Example 582, N-(4-(((3,5-dicyano-4-ethyl-6-(4-(pyrrolidin-1-yl)piperidin-1-yl)pyridin-2-yl)thio)methyl)phenyl)-N-methylmethanesulfonamide]
10 | D (Category D: ≥6.5) | < 316 nM |  |  |  | CCc1c(C#N)c(SC(C(N)=O)c2ncccc2F)nc(N2CCC(N)CC2)c1C#N (stereo not shown) [Example 583, 2-((6-(4-aminopiperidin-1-yl)-3,5-dicyano-4-ethylpyridin-2-yl)thio)-2-(3-fluoropyridin-2-yl)acetamide]
11 | D (Category D: ≥6.5) | < 316 nM |  |  |  | CCc1c(C#N)c(SCc2ccc(N(C)S(C)(=O)=O)cc2)nc(N2CCC(NC(=O)[C@@H](C)N)CC2)c1C#N [Example 584, (R)-2-amino-N-(1-(3,5-dicyano-4-ethyl-6-((4-(N-methylmethylsulfonamido)benzyl)thio)pyridin-2-yl)piperidin-4-yl)propanamide]
12 | D (Category D: ≥6.5) | < 316 nM |  |  |  | CCc1c(C#N)c(SCc2ccc(N(C)S(C)(=O)=O)cc2)nc(N2CCC(NC(=O)[C@H](C)N)CC2)c1C#N [Example 585, (S)-2-amino-N-(1-(3,5-dicyano-4-ethyl-6-((4-(N-methylmethylsulfonamido)benzyl)thio)pyridin-2-yl)piperidin-4-yl)propanamide]
13 | D (Category D: ≥6.5) | < 316 nM |  |  |  | CCc1c(C#N)c(SCc2ccc(N(C)S(C)(=O)=O)cc2)nc(N2CCC(N)CC2)c1C#N [Example 587, N-(4-(((6-(4-aminopiperidin-1-yl)-3,5-dicyano-4-ethylpyridin-2-yl)thio)methyl)phenyl)-N-methylmethanesulfonamide]
14 | D (Category D: ≥6.5) | < 316 nM |  |  |  | CCc1c(C#N)c(SC(C(N)=O)c2ccccc2)nc(N2CCC[C@@H](CNC(=O)C(C)(C)N)C2)c1C#N (stereo partly drawn) [Example 588, 2-amino-N-(((3S)-1-(6-((2-amino-2-oxo-1-phenylethyl)thio)-3,5-dicyano-4-ethylpyridin-2-yl)piperidin-3-yl)methyl)-2-methylpropanamide]
15 | D (Category D: ≥6.5) | 316 to 1000 nM |  |  |  | CCc1c(C#N)c(SC(C(N)=O)c2ccccc2)nc(N2CCC[C@@H](CNC(=O)CN)C2)c1C#N (stereo partly drawn) [Example 589, 2-amino-N-(((3S)-1-(6-((2-amino-2-oxo-1-phenylethyl)thio)-3,5-dicyano-4-ethylpyridin-2-yl)piperidin-3-yl)methyl)acetamide]
16 | D (Category D: ≥6.5) | 1000 to 31600 nM |  |  |  | CCc1c(C#N)c(SCc2ccc(N(C)S(C)(=O)=O)cc2)nc(N2CCC(NC(=O)CN)CC2)c1C#N [Example 590, 2-amino-N-(1-(3,5-dicyano-4-ethyl-6-((4-(N-methylmethylsulfonamido)benzyl)thio)pyridin-2-yl)piperidin-4-yl)acetamide]
17 | D (Category D: ≥6.5) | < 316 nM |  |  |  | CCc1c(C#N)c(SCc2ccc(N(C)S(C)(=O)=O)cc2)nc(N2CCOC(CN)C2)c1C#N (stereo not shown) [Example 591, N-(4-(((6-(2-(aminomethyl)morpholino)-3,5-dicyano-4-ethylpyridin-2-yl)thio)methyl)phenyl)-N-methylmethanesulfonamide]
18 | D (Category D: ≥6.5) | < 316 nM |  | > 6.5 | 158 nM | CCc1c(C#N)c(SC(C(N)=O)c2ccccc2)nc(N2CCO[C@H](CNC(=O)CN)C2)c1C#N (stereo partly drawn) [Example 592, 2-amino-N-(((2R)-4-(6-((2-amino-2-oxo-1-phenylethyl)thio)-3,5-dicyano-4-ethylpyridin-2-yl)morpholin-2-yl)methyl)acetamide]
19 |  | < 316 nM | < 316 nM |  |  | CCc1c(C#N)c(SC(C(N)=O)c2ccc(F)cc2)nc(N2CCC[C@H](CN)C2)c1C#N (stereo partly drawn) [Example 593, 2-((6-((R)-3-(aminomethyl)piperidin-1-yl)-3,5-dicyano-4-ethylpyridin-2-yl)thio)-2-(4-fluorophenyl)acetamide]
20 | D (Category D: ≥6.5) | < 316 nM |  |  |  | CCc1c(C#N)c(SC(C(N)=O)c2ccc(F)cc2)nc(N2CCC[C@H](CNCC(C)(C)C)C2)c1C#N (stereo partly drawn) [Example 594, 2-((3,5-dicyano-4-ethyl-6-((R)-3-((neopentylamino)methyl)piperidin-1-yl)pyridin-2-yl)thio)-2-(4-fluorophenyl)acetamide]
21 | D (Category D: ≥6.5) | < 316 nM |  |  |  | CCc1c(C#N)c(SCc2ccc(N(C)S(=O)(=O)CF)cc2)nc(N2CCCN(C)CC2)c1C#N [Example 595, N-(4-(((3,5-dicyano-4-ethyl-6-(4-methyl-1,4-diazepan-1-yl)pyridin-2-yl)thio)methyl)phenyl)-1-fluoro-N-methylmethanesulfonamide]
22 | D (Category D: ≥6.5) | 316 to 1000 nM |  |  |  | CCc1c(C#N)c(SCc2ccc(N(C)S(C)(=O)=O)cc2)nc(N2CCOC(CNC)C2)c1C#N (stereo not shown) [Example 596, N-(4-(((3,5-dicyano-4-ethyl-6-(2-((methylamino)methyl)morpholino)pyridin-2-yl)thio)methyl)phenyl)-N-methylmethanesulfonamide]
23 | D (Category D: ≥6.5) | < 316 nM |  |  |  | CCc1c(C#N)c(SCc2ccc(N(C)S(C)(=O)=O)cc2)nc(N2CCCC(CN(C)C)C2)c1C#N (stereo not shown) [Example 597, N-(4-(((3,5-dicyano-6-(3-((dimethylamino)methyl)piperidin-1-yl)-4-ethylpyridin-2-yl)thio)methyl)phenyl)-N-methylmethanesulfonamide]
24 | D (Category D: ≥6.5) | 1000 to 31600 nM |  |  |  | CCc1c(C#N)c(SC(C(N)=O)c2ccccc2)nc(N2CCO[C@@H](CNC(=O)CN)C2)c1C#N (stereo partly drawn) [Example 598, 2-amino-N-(((2S)-4-(6-((2-amino-2-oxo-1-phenylethyl)thio)-3,5-dicyano-4-ethylpyridin-2-yl)morpholin-2-yl)methyl)acetamide]

Row | Compound | DNMT1 BioChemical (pIC50 category) (DNMT1; [2]) | EC50 [1] | IC50 (DNMT1; [3]) | average pIC50 against DNMT1 (DNMT1; breaklight assay and/or SPA assay, repeated experimental runs) | IC50 (DNMT1; breaklight assay and/or SPA assay, repeated experimental runs, read-out: average pIC50 against DNMT1 (converted))
25 | CCc1c(C#N)c(SC(C(N)=O)c2ccccc2)nc(N2CCO[C@@H](CN)C2)c1C#N (stereo partly drawn) [Example 586, 2-((6-((S)-2-(aminomethyl)morpholino)-3,5-dicyano-4-ethylpyridin-2-yl)thio)-2-phenylacetamide] | D (Category D: ≥6.5) | < 316 nM |  |  | 
